From ChEMBL document CHEMBL1132902, “Bicyclic nucleoside inhibitors of Varicella-Zoster Virus (VZV): the effect of a terminal halogen substitution in the side-chain” (Bioorg Med Chem Lett, 2000)
Calls of active or inactive are those of the source. No cut-off for these calls is given here.

Assays:
Human alphaherpesvirus 3 [1] = assay: The compound was tested for its effective concentration required to reduce virus plaque formation by using Varicella-Zoster virus OKA strain; format: functional, organism-based
[2] = The compound was tested for its minimal cytotoxic concentration required to alter microscopically detectable cell morphology; format: functional
HEL = assay: The compound was tested for cytotoxic concentration required to inhibit Hel cell growth by 50%; format: functional; details: Homo sapiens
Human alphaherpesvirus 3 [3] = assay: The compound was tested for its effective concentration required to reduce virus plaque formation by using TK (thymidine kinase -deficient)-Varicella-Zoster virus 07/1 strain; format: functional, organism-based
Human alphaherpesvirus 3 [4] = assay: The compound was tested for its effective concentration required to reduce virus plaque formation by using TK (thymidine kinase -deficient) -Varicella-Zoster virus YS/R strain; format: functional, organism-based
Human alphaherpesvirus 3 [5] = assay: The compound was tested for its effective concentration required to reduce virus plaque formation by using Varicella-Zoster virus YS strain; format: functional, organism-based
Cytomegalovirus [6] = assay: Compound was tested (in vitro) against Cytomegalovirus virus or HIV-1; Not active; format: functional, organism-based
[7] = test system: Human immunodeficiency virus 1; assay: In vitro activity of compound against HIV-1; Not active; format: functional, organism-based
Human alphaherpesvirus 2 [8] = assay: Compound was tested (in vitro) against Herpes simplex virus-2; Not active; format: functional, organism-based
Human alphaherpesvirus 3 [9] = assay: The compound was tested for its effective concentration required to reduce virus plaque formation by using TK- (thymidine kinase -deficient)-Varicella-Zoster virus 07/1 strain; format: functional, organism-based
Human alphaherpesvirus 2 [10] = assay: In vitro activity against Herpes simplex virus-2; format: functional, organism-based
Human alphaherpesvirus 1 = assay: In vitro activity against Herpes simplex virus-1; Not active; format: functional, organism-based
Cytomegalovirus [11] = assay: In vitro activity against Cytomegalovirus virus; format: functional, organism-based
Cytomegalovirus [12] = assay: Compound was tested (in vitro) against Cytomegalovirus virus or HIV-1; format: functional, organism-based
Human alphaherpesvirus 2 [13] = assay: Compound was tested (in vitro) against Herpes simplex virus-2; format: functional, organism-based

Row | Structure (SMILES) | EC50 (Human alphaherpesvirus 3 [4]) [µM] | EC50 (Human alphaherpesvirus 3 [9]) [µM] | EC50 (Human alphaherpesvirus 3 [1]) [µM] | MCC [2] [µM] | CC50 (HEL) [µM] | EC50 (Human alphaherpesvirus 3 [3]) [µM] | EC50 (Human alphaherpesvirus 3 [5]) [µM] | Activity (Cytomegalovirus [6]) | Activity [7] | Activity (Human alphaherpesvirus 2 [8]) | Activity (Human alphaherpesvirus 2 [10]) | Activity (Human alphaherpesvirus 1) | Activity (Cytomegalovirus [11]) | Activity (Cytomegalovirus [12]) | Activity (Human alphaherpesvirus 2 [13])
1 | O=c1nc2oc(CCCCCCCCCI)cc2cn1[C@H]1C[C@H](O)[C@@H](CO)O1 | > 50 | – | 0.061 | 50 | > 200 | > 50 | 0.034 | inactive | inactive | inactive | – | – | – | – | –
2 | O=c1nc2oc(CCCCCCCCCF)cc2cn1[C@H]1C[C@H](O)[C@@H](CO)O1 | > 20 | – | 0.022 | > 50 | 200 | > 20 | 0.014 | – | inactive | – | inactive | inactive | inactive | – | –
3 | CCCCCCCCCCc1cc2cn([C@H]3C[C@H](O)[C@@H](CO)O3)c(=O)nc2o1 | > 50 | – | – | > 50 | > 50 | > 50 | – | – | – | – | – | – | – | – | –
4 | Nc1nc2c(ncn2COCCO)c(=O)[nH]1 [ACYCLOVIR] | – | – | – | > 200 | > 200 | – | – | – | – | – | – | – | – | – | –
5 | O=c1nc2oc(CCCCCCCCCCl)cc2cn1[C@H]1C[C@H](O)[C@@H](CO)O1 | 13 | – | 0.007 | > 200 | 200 | 15 | 0.012 | – | inactive | – | – | – | – | inactive | inactive
6 | O=c1nc2oc(CCCCCCCCCBr)cc2cn1[C@H]1C[C@H](O)[C@@H](CO)O1 | 50 | – | 0.026 | > 200 | > 50 | > 50 | 0.031 | inactive | inactive | inactive | – | – | – | – | –

The next lines start with results.

Row | EC50 (Human alphaherpesvirus 3 [4]) [µM] | EC50 (Human alphaherpesvirus 3 [9]) [µM] | Structure (SMILES) | EC50 (Human alphaherpesvirus 3 [1]) [µM] | MCC [2] [µM] | CC50 (HEL) [µM] | EC50 (Human alphaherpesvirus 3 [3]) [µM] | EC50 (Human alphaherpesvirus 3 [5]) [µM] | Activity (Cytomegalovirus [6]) | Activity [7] | Activity (Human alphaherpesvirus 2 [8]) | Activity (Human alphaherpesvirus 2 [10]) | Activity (Human alphaherpesvirus 1) | Activity (Cytomegalovirus [11]) | Activity (Cytomegalovirus [12]) | Activity (Human alphaherpesvirus 2 [13])
7 | 31 | – | O=c1[nH]c(=O)n([C@H]2C[C@H](O)[C@@H](CO)O2)cc1C#CCCCCCCCCCI | 13 | > 50 | 68 | 36 | 6 | – | – | – | – | – | – | – | –
8 | 23 | 33 | O=c1[nH]c(=O)n([C@H]2C[C@H](O)[C@@H](CO)O2)cc1C#CCCCCCCCCCF | 26 | 200 | 116 | – | 22 | – | – | – | – | – | – | – | –
9 | 2.5 | – | O=c1[nH]c(=O)n([C@H]2C[C@H](O)[C@@H](CO)O2)cc1C#CCCCCCCCCCBr | 1.1 | 50 | 97 | 16 | 0.8 | – | – | – | – | – | – | – | –
10 | 9.6 | – | O=c1[nH]c(=O)n([C@H]2C[C@H](O)[C@@H](CO)O2)cc1C#CCCCCCCCCCCl | 3.6 | 200 | 74 | 10 | 2.8 | – | – | – | – | – | – | – | –
